Measured values published in patent US9556179B2 (BRISTOL-MYERS SQUIBB COMPANY, priority 2012, dated 2017).

Legend:
CK1δ = CK1δ (Homo sapiens (Human), UniProt P48730); test: CK1δ kinase assay (Caliper LABCHIP electrophoretic separation of fluoresceinated peptide substrate and product); format: biochemical; conditions: 200 pM enzyme, 50 μM ATP, 22 hours at room temperature
Summary of the method: (§1)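 Incubated for twenty-two hours at ambient temperature, then quenched with EDTA and analyzed by electrophoretic separation of unphosphorylated and phosphorylated peptide.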

CK1ε = CK1ε (Homo sapiens (Human), UniProt P49674); test: CK1ε kinase assay (Caliper LABCHIP electrophoretic separation of fluoresceinated peptide substrate and product); format: biochemical; conditions: 200 pM enzyme, 50 μM ATP, 22 hours at room temperature
Sequence of CK1ε (P49674 whole entry): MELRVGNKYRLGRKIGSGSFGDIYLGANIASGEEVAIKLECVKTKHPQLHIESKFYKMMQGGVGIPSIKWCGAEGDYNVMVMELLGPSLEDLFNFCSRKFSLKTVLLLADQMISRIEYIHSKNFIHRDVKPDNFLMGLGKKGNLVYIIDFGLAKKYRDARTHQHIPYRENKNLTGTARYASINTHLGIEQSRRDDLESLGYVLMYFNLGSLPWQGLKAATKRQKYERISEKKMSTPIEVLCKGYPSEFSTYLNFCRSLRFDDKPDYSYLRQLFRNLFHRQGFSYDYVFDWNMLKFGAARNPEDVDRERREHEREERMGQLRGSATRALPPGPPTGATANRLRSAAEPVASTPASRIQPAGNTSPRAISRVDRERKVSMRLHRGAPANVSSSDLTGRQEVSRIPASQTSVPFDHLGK
Summary of the method: as §1

Sequence of CK1δ (P48730 whole entry): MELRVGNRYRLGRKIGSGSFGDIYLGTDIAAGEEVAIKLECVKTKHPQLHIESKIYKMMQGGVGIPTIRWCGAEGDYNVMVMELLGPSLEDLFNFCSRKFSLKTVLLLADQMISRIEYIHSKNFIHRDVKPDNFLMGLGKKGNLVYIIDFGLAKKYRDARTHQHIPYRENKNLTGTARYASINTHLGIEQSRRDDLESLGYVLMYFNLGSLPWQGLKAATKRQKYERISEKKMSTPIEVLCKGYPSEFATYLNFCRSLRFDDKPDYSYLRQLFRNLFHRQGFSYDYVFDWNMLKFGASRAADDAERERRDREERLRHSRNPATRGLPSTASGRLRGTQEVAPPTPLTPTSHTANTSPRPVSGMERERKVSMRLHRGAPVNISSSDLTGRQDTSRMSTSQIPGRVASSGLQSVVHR

Compound	IC50 (CK1δ) [nM]	IC50 (CK1ε) [nM]
O=C(Nc1cn2nc(-c3c(-c4ccc(F)cc4)nc4n3CCOC4)ccc2n1)c1cc(F)nc(F)c1 [Compound 449, 2,6-Difluoro-N-(6-(2-(4-fluorophenyl)-6,8-dihydro-5H-imidazo[2,1-c][1,4]oxazin-3-yl)imidazo[1,2-b]pyridazin-2-yl)isonicotinamide]	0.7	9
O=C(Nc1cn2nc(-c3c(-c4ccc(F)cc4)nc4n3CCOC4)ccc2n1)c1ccnc(N2CCOCC2)c1 [Compound 450, N-(6-(2-(4-Fluorophenyl)-6,8-dihydro-5H-imidazo[2,1-c][1,4]oxazin-3-yl)imidazo[1,2-b]pyridazin-2-yl)-2-morpholinoisonicotinamide]	0.7	6.9
O=C(Nc1cn2nc(-c3c(-c4ccc(F)cc4)nc4n3CCNC4)ccc2n1)c1ccncc1 [Compound 456, N-(6-(2-(4-Fluorophenyl)-5,6,7,8-tetrahydroimidazo[1,2-a]pyrazin-3-yl)imidazo[1,2-b]pyridazin-2-yl)isonicotinamide]	0.9	7
CC(=O)N1CCn2c(nc(-c3ccc(F)cc3)c2-c2ccc3nc(NC(=O)c4ccnc(F)c4)cn3n2)C1 [Compound 460, N-(6-(7-Acetyl-2-(4-fluorophenyl)-5,6,7,8-tetrahydroimidazo[1,2-a]pyrazin-3-yl)imidazo[1,2-b]pyridazin-2-yl)-2-fluoroisonicotinamide]	0.6	3.7
O=C(Nc1cn2nc(-c3c(-c4ccc(F)cc4)nc4n3CCN(C(=O)CC(F)(F)F)C4)ccc2n1)c1ccnc(F)c1 [Compound 461, 2-Fluoro-N-(6-(2-(4-fluorophenyl)-7-(3,3,3-trifluoropropanoyl)-5,6,7,8-tetrahydroimidazo[1,2-a]pyrazin-3-yl)imidazo[1,2-b]pyridazin-2-yl)isonicotinamide]	0.6	2.6
O=C(Nc1cn2nc(-c3c(-c4ccc(F)cc4)nc4n3CCN(C(=O)CCC(F)(F)F)C4)ccc2n1)c1ccnc(F)c1 [Compound 462, 2-Fluoro-N-(6-(2-(4-fluorophenyl)-7-(4,4,4-trifluorobutanoyl)-5,6,7,8-tetrahydroimidazo[1,2-a]pyrazin-3-yl)imidazo[1,2-b]pyridazin-2-yl)isonicotinamide]	1.2	6.5
CC(C)C(=O)N1CCn2c(nc(-c3ccc(F)cc3)c2-c2ccc3nc(NC(=O)c4ccnc(F)c4)cn3n2)C1 [Compound 463, 2-Fluoro-N-(6-(2-(4-fluorophenyl)-7-isobutyryl-5,6,7,8-tetrahydroimidazo[1,2-a]pyrazin-3-yl)imidazo[1,2-b]pyridazin-2-yl)isonicotinamide]	0.5	3.8
CC(C)(C(=O)N1CCn2c(nc(-c3ccc(F)cc3)c2-c2ccc3nc(NC(=O)c4ccnc(F)c4)cn3n2)C1)C(F)(F)F [Compound 465, 2-Fluoro-N-(6-(2-(4-fluorophenyl)-7-(3,3,3-trifluoro-2,2-dimethylpropanoyl)-5,6,7,8-tetrahydroimidazo[1,2-a]pyrazin-3-yl)imidazo[1,2-b]pyridazin-2-yl)isonicotinamide]	0.6	5
O=C(Nc1cn2nc(-c3c(-c4ccc(F)cc4)nc4n3CCN(C(=O)C3(C(F)(F)F)CCC3)C4)ccc2n1)c1ccnc(F)c1 [Compound 467, 2-Fluoro-N-(6-(2-(4-fluorophenyl)-7-(1-(trifluoromethyl)cyclobutanecarbonyl)-5,6,7,8-tetrahydroimidazo[1,2-a]pyrazin-3-yl)imidazo[1,2-b]pyridazin-2-yl)isonicotinamide]	0.8	6.1
CC1(C(=O)N2CCn3c(nc(-c4ccc(F)cc4)c3-c3ccc4nc(NC(=O)c5ccnc(F)c5)cn4n3)C2)COC1 [Compound 468, 2-Fluoro-N-(6-(2-(4-fluorophenyl)-7-(3-methyloxetane-3-carbonyl)-5,6,7,8-tetrahydroimidazo[1,2-a]pyrazin-3-yl)imidazo[1,2-b]pyridazin-2-yl)isonicotinamide]	0.5	3.9
O=C(Nc1cn2nc(-c3c(-c4ccc(F)cc4)nc4n3CCN(C(=O)C3CC3)C4)ccc2n1)c1ccnc(F)c1 [Compound 469, N-(6-(7-(Cyclopropanecarbonyl)-2-(4-fluorophenyl)-5,6,7,8-tetrahydroimidazo[1,2-a]pyrazin-3-yl)imidazo[1,2-b]pyridazin-2-yl)-2-fluoroisonicotinamide]	2.3	12.9
CC(C)(O)C(=O)N1CCn2c(nc(-c3ccc(F)cc3)c2-c2ccc3nc(NC(=O)c4ccnc(F)c4)cn3n2)C1 [Compound 470, 2-Fluoro-N-(6-(2-(4-fluorophenyl)-7-(2-hydroxy-2-methylpropanoyl)-5,6,7,8-tetrahydroimidazo[1,2-a]pyrazin-3-yl)imidazo[1,2-b]pyridazin-2-yl)isonicotinamide]	1.1	8.1
N#CC1(C(=O)N2CCn3c(nc(-c4ccc(F)cc4)c3-c3ccc4nc(NC(=O)c5ccnc(F)c5)cn4n3)C2)CC1 [Compound 471, N-(6-(7-(1-Cyanocyclopropanecarbonyl)-2-(4-fluorophenyl)-5,6,7,8-tetrahydroimidazo[1,2-a]pyrazin-3-yl)imidazo[1,2-b]pyridazin-2-yl)-2-fluoroisonicotinamide]	0.5	3.5
O=C(Nc1cn2nc(-c3c(-c4ccc(F)cc4)nc4n3CCN(C(=O)C3(C(F)(F)F)CC3)C4)ccc2n1)c1ccnc(F)c1 [Compound 472, 2-Fluoro-N-(6-(2-(4-fluorophenyl)-7-(1-(trifluoromethyl)cyclopropanecarbonyl)-5,6,7,8-tetrahydroimidazo[1,2-a]pyrazin-3-yl)imidazo[1,2-b]pyridazin-2-yl)isonicotinamide]	0.6	4.5
CC1(C)CC1C(=O)N1CCn2c(nc(-c3ccc(F)cc3)c2-c2ccc3nc(NC(=O)c4ccnc(F)c4)cn3n2)C1 (centres unmarked) [Compound 473, N-(6-(7-(2,2-Dimethylcyclopropanecarbonyl)-2-(4-fluorophenyl)-5,6,7,8-tetrahydroimidazo[1,2-a]pyrazin-3-yl)imidazo[1,2-b]pyridazin-2-yl)-2-fluoroisonicotinamide]	0.5	2.9
COC(=O)N1CCn2c(nc(-c3ccc(F)cc3)c2-c2ccc3nc(NC(=O)c4ccnc(F)c4)cn3n2)C1 [Compound 474, Methyl 3-(2-(2-fluoroisonicotinamido)imidazo[1,2-b]pyridazin-6-yl)-2-(4-fluorophenyl)-5,6-dihydroimidazo[1,2-a]pyrazine-7(8H)-carboxylate]	1	9.3

The remaining lines, values ahead:

IC50 (CK1δ) [nM]	IC50 (CK1ε) [nM]	Compound
0.4	4.6	O=C(Nc1cn2nc(-c3c(-c4ccc(F)cc4)nc4n3CCOC4)ccc2n1)c1cccc(-c2cccnc2)c1 [Compound 451, N-(6-(2-(4-Fluorophenyl)-6,8-dihydro-5H-imidazo[2,1-c][1,4]oxazin-3-yl)imidazo[1,2-b]pyridazin-2-yl)-3-(pyridin-3-yl)benzamide]
0.3	1.5	O=C(Nc1cn2nc(-c3c(-c4ccc(F)cc4)nc4ccc(N5CCOCC5)cn34)ccc2n1)c1ccnc(F)c1 [Compound 452, 2-Fluoro-N-(6-(2-(4-fluorophenyl)-6-morpholinoimidazo[1,2-a]pyridin-3-yl)imidazo[1,2-b]pyridazin-2-yl)isonicotinamide]
0.5	8.5	O=C(Nc1cn2nc(-c3c(-c4ccc(F)cc4)nc4n3CCNC4)ccc2n1)c1cc(F)nc(F)c1 [Compound 457, 2,6-Difluoro-N-(6-(2-(4-fluorophenyl)-5,6,7,8-tetrahydroimidazo[1,2-a]pyrazin-3-yl)imidazo[1,2-b]pyridazin-2-yl)isonicotinamide]
0.3	3.7	O=C(Nc1cn2nc(-c3c(-c4ccc(F)cc4)nc4n3CCNC4)ccc2n1)c1ccnc(N2CCOCC2)c1 [Compound 458, N-(6-(2-(4-Fluorophenyl)-5,6,7,8-tetrahydroimidazo[1,2-a]pyrazin-3-yl)imidazo[1,2-b]pyridazin-2-yl)-2-morpholinoisonicotinamide]
0.3	2.6	O=C(Nc1cn2nc(-c3c(-c4ccc(F)cc4)nc4n3CCNC4)ccc2n1)c1cccc(-c2cccnc2)c1 [Compound 459, N-(6-(2-(4-Fluorophenyl)-5,6,7,8-tetrahydroimidazo[1,2-a]pyrazin-3-yl)imidazo[1,2-b]pyridazin-2-yl)-3-(pyridin-3-yl)benzamide]
0.1	2.3	CC(C)(C)C(=O)N1CCn2c(nc(-c3ccc(F)cc3)c2-c2ccc3nc(NC(=O)c4ccnc(F)c4)cn3n2)C1 [Compound 464, 2-Fluoro-N-(6-(2-(4-fluorophenyl)-7-pivaloyl-5,6,7,8-tetrahydroimidazo[1,2-a]pyrazin-3-yl)imidazo[1,2-b]pyridazin-2-yl)isonicotinamide]
0.2	1.5	O=C(Nc1cn2nc(-c3c(-c4ccc(F)cc4)nc4n3CCN(C(=O)C3CC3(F)F)C4)ccc2n1)c1ccnc(F)c1 (centres unmarked) [Compound 466, N-(6-(7-(2,2-Difluorocyclopropanecarbonyl)-2-(4-fluorophenyl)-5,6,7,8-tetrahydroimidazo[1,2-a]pyrazin-3-yl)imidazo[1,2-b]pyridazin-2-yl)-2-fluoroisonicotinamide]
0.3	2.5	CS(=O)(=O)N1CCn2c(nc(-c3ccc(F)cc3)c2-c2ccc3nc(NC(=O)c4ccnc(F)c4)cn3n2)C1 [Compound 476, 2-Fluoro-N-(6-(2-(4-fluorophenyl)-7-(methylsulfonyl)-5,6,7,8-tetrahydroimidazo[1,2-a]pyrazin-3-yl)imidazo[1,2-b]pyridazin-2-yl)isonicotinamide]
0.4	2.3	O=C(Nc1cn2nc(-c3c(-c4ccc(F)cc4)nc4n3CCN(CCC(F)(F)F)C4)ccc2n1)c1ccnc(F)c1 [Compound 478, 2-Fluoro-N-(6-(2-(4-fluorophenyl)-7-(3,3,3-trifluoropropyl)-5,6,7,8-tetrahydroimidazo[1,2-a]pyrazin-3-yl)imidazo[1,2-b]pyridazin-2-yl)isonicotinamide]
